In patent US10822325B2, “Human GLUT5 specific inhibitors and methods of treatment” (UNM RAINFOREST INNOVATIONS, priority 2015, dated 2020):

Biological target: T1, GlcPSe,F348H (Staphylococcus epidermidis, UniProt A0A0H2VG78, F348H)
T1 construct: made in house; host or cells: Escherichia coli JM1100 (pBAD); right-side-out membrane vesicles
Assay: Glucose uptake by GlcPSe,F348H mutant in right-side-out vesicles of JM1100 E. coli cells
Format: biochemical, bacterial
Settings: for effect on GlcPSe,F348H glucose transport: 2 mM compound, RSO vesicles
Method: Glucose transport assay for GlcPSe, wild-type and F348H mutant, was performed as described previouslyl^16. GlcPSe was cloned into the pBAD vector (Invitrogen) with C-terminal 6×His tag. F348H mutation was done with the site-directed mutagenesis method^37. GlcPSe proteins were expressed in the glucose transporter deficient Escherichia coli strain JM1100. Cells were grown at 37° C., in Luria Broth medium, with 100 μg/mL ampicillin. Protein expression was induced with 0.3 mM L-arabinose at O.D.600 nm 0.6. After 3 hours, cells were harvested by centrifugation at 2,500 g for 5 min. The right-side-out (RSO) membrane vesicles of JM1100 E. coli cells were prepared as described previouslyl^16,39,40. Transport assay was initiated by the addition of ^14C-radiolabeled glucose (Moravek Biochemicals) to 50 μL RSO vesicles in 100 mM KPi buffer pH 7.5, at O.D.600 nm of 2.0. After one minute, the transport was stopped and the radioactivity was measured as described below. When inhibitors were used, they were incubated with RSO vesicles 1 minute before transport initiation.
As MSNBA seemed to be specific for GLUT5, we focused on the residues in the MSNBA predicted binding site that were different from GLUT5 compared to GLUT1-4 and GlcPSe. Among these, H387 of GLUT5 potentially interacts with the […] group of MSNBA (FIG. 4b and FIG. 6), but is a Phe in GLUT1-4 as well as GlcPSe (FIG. 4c). To test if this residue is important for MSNBA inhibition, we constructed and expressed three mutant proteins: GlcPSe,F348H, GLUT1F379H, and GLUT5H387F. As with the wild-type proteins, GLUT1F379H and GLUT5H387F were recombinantly produced in insect cells, purified and reconstituted in proteoliposomes. Their transport activity was assayed by the entrance counter-flow method in proteolipsomes. Glucose transport of GlcPSe,F348H was determined in JM1100 E. coli cells in right-side-out (RSO) vesicles.

T1 sequence (A0A0H2VG78 whole entry F348H): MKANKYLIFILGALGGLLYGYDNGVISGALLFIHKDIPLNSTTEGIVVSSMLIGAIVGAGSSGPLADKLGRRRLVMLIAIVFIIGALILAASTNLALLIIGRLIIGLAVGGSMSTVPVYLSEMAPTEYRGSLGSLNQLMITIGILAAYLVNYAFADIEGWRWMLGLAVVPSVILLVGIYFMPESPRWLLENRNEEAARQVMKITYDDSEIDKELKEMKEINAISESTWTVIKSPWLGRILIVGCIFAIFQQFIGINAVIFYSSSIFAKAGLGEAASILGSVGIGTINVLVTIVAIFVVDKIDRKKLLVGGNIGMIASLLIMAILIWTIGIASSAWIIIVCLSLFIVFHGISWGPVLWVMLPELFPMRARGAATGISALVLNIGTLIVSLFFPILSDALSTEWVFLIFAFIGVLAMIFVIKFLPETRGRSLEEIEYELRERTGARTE

Structure (SMILES) | inhibition at 2000 µM (read-out: inhibition of GlcPSe,F348H transport activity) [%] | effect on GlcPSe,F348H glucose transport
CS(=O)(=O)c1ccc(Nc2ccc3c(c2)OCO3)c([N+](=O)[O-])c1 [MSNBA, N-[4-(methylsulfonyl)-2-nitrophenyl]-1,3-benzodioxol-5-amine] | 75 | 
O=C(CCc1ccc(O)cc1)c1c(O)cc(O)cc1O [phloretin, reference compound] |  | still inhibited
C=C1[C@@H](C)[C@H]2[C@H](Cc3ccccc3)NC(=O)[C@]23OC(=O)/C=C/[C@H](O)CCC[C@@H](C)C/C=C/[C@H]3[C@@H]1O [cytochalasin B, reference compound] |  | decreased cytochalasin B inhibition
